Source: ChEMBL document CHEMBL4725292 (J Med Chem, 2020)

Legend:
[1] = Inhibition of LPS-induced MCP1 production in PBMC (unknown origin); type: functional, tissue-based
[2] = biological target: Bromodomain-containing protein 3 (Homo sapiens, UniProt Q15059); experiment: Binding affinity to human partial length BRD3 bromodomain 1 (P24 to E144 residues) expressed in bacterial expression system by BROMOscan assay
[3] = biological target: Bromodomain testis-specific protein (Homo sapiens, UniProt Q58F21); experiment: Binding affinity to human partial length BRDT bromodomain 1 (N21 to E137 residues) expressed in bacterial expression system by bromoscan assay
[4] = biological target: T1, ATPase family AAA domain-containing protein 2B (Homo sapiens, UniProt Q9ULI0); experiment: Binding affinity to human partial length ATAD2B (Q955 to R1082 residues) expressed in bacterial expression system by BROMOscan assay
T1 sequence (Q9ULI0 whole entry): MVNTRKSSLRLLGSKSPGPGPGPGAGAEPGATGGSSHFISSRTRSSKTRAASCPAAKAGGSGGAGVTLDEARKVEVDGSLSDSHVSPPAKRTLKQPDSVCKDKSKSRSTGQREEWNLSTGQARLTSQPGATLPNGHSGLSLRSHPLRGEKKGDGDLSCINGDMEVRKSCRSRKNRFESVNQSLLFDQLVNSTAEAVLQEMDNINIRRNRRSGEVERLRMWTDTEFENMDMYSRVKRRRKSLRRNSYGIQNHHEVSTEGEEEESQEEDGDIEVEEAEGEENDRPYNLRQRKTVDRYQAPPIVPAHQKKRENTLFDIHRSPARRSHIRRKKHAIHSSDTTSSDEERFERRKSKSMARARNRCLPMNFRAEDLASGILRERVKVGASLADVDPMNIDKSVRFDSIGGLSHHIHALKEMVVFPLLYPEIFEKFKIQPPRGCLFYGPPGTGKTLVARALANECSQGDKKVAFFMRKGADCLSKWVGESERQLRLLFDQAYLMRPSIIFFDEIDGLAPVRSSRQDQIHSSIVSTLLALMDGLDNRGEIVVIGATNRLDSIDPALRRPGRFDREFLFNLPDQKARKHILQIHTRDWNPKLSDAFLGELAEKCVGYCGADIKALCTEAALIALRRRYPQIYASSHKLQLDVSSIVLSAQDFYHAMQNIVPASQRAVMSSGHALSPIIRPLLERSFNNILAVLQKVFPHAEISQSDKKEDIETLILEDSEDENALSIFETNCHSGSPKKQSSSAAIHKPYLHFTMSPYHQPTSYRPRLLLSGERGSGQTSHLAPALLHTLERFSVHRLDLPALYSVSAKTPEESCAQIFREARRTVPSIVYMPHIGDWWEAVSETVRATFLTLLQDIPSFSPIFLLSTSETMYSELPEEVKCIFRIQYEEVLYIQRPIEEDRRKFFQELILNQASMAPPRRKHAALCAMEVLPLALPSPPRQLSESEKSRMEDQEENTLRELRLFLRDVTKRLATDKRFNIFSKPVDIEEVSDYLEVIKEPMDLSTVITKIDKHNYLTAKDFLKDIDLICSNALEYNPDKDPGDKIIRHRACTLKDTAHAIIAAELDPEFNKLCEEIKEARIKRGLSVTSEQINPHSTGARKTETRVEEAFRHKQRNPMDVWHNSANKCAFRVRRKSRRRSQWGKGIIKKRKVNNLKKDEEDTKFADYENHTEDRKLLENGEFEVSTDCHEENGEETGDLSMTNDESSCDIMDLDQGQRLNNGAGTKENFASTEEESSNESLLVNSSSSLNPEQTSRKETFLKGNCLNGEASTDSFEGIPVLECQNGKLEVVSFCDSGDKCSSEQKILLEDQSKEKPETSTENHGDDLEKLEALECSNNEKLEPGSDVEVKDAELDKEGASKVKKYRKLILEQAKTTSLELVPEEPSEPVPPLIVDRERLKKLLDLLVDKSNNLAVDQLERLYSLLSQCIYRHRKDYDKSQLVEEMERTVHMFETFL

[5] = biological target: Bromodomain-containing protein 2 (Homo sapiens, UniProt P25440); experiment: Binding affinity to full length BRD2 BD2 in human HuT78 cell lysates incubated for 45 mins by liquid chromatography-mass spectrometry based chemoproteomic binding assay; type: subcellular
Chain of Bromodomain-containing protein 2 (P25440 whole entry): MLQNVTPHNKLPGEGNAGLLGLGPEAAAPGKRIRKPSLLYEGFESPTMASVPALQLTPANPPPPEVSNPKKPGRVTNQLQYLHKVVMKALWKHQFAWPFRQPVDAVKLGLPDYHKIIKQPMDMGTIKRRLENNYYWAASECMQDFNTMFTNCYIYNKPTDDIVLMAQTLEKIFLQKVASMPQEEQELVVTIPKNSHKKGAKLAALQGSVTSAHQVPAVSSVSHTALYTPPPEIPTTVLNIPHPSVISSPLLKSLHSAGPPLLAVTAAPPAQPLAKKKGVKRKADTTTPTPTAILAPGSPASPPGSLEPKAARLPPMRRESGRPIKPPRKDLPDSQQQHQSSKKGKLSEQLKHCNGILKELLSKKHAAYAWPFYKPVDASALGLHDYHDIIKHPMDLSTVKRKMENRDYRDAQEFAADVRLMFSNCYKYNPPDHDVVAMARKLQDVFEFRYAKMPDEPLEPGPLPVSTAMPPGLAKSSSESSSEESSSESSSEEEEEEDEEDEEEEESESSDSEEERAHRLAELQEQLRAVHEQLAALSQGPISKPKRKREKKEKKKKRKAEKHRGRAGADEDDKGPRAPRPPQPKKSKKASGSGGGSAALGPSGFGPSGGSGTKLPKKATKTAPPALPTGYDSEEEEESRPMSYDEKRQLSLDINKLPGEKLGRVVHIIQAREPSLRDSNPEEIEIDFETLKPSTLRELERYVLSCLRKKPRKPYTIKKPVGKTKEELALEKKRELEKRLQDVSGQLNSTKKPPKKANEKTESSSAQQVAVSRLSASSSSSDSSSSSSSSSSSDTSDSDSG

Chain of Bromodomain-containing protein 3 (Q15059 whole entry, the tested form may be a part): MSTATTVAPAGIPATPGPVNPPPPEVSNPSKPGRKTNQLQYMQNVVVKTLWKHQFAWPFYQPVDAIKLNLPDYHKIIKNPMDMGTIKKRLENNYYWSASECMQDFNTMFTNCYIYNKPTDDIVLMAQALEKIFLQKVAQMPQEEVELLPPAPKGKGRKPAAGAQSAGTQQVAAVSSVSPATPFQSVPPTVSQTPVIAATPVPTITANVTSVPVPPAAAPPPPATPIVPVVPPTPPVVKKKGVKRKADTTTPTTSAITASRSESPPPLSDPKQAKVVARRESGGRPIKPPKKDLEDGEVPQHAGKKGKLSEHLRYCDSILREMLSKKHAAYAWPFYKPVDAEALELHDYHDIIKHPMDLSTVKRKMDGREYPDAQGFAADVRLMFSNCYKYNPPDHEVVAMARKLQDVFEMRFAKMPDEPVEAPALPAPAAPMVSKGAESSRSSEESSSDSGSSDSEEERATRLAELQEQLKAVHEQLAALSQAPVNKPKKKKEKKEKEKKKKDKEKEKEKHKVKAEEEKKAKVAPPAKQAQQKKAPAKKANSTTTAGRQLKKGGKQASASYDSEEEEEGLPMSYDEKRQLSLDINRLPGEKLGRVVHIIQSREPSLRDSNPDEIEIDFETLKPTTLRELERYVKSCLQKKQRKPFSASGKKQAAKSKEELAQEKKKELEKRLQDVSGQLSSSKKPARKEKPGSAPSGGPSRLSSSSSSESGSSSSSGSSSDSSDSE

SMILES: Cc1cc2c(-c3ccco3)cnc(N[C@@H]3CCN(C)C[C@H]3C(=O)NC3CCCCC3)c2[nH]c1=O [GSK789]
- IC50 [1]: 20 nM
- Kd [2]: 15.8 nM
- Kd [3]: 20 nM
- Kd [4]: 15800 nM
- Kd [5]: > 25100 nM
